The record followed here is US20220047617A1, “Nucleic acid nanocarrier drug, preparation method, pharmaceutical composition and use thereof” (BAI YAO ZHI DA (BEIJING) NANOBIO TECHNOLOGY CO., LTD., priority 2018, published 2022).

One may read the IC50 as the concentration that gives 50% inhibition. The term inhibition denotes how much of the control response was suppressed.

Where two headings read alike, the source gives them in different places. {Biotin} = biotin label attached at strand end

Data set [1] relates to MCF-7 cells. As to the kind of experiment: Cytotoxicity in MCF-7 cells (CellTiter 96 AQueous One Solution), Embodiment 33. The conditions noted are these: MCF-7, 96 hours. The data set is classed as cell-based, human. As for the experimental part:
Cytotoxicity of DNAh-Biotin-EGFRapt-Cy5-Mit Nanoparticles in MCF-7 Cells
(§1) 1) Harvesting cells in a logarithmic growth phase, taking a small amount and staining with trypan blue for counting to ensure that the cell viability reaches more than 98%;
(§2) 2) adjusting the cell density to 2.22×10^4/mL with a growth medium;
(§3) 3) planting 90 μL/well of cell suspension into the 96-well plate, herein the number of cells per well in the plate is 2000;
(§4) 4) placing the planted cell plate in the incubator at 37 DEG C. and incubating overnight;
(§5) 5) performing 3.16-fold gradient dilution on the compound at 9 concentration points;
6) taking out the cell culture plate, and adding 10 μL/well of 10× concentration drug working solution to the corresponding wells of the cell culture plate, herein three replicate holes are made for each concentration, and the final drug action concentration is shown in Table 144 below;
7) placing the cell culture plate in the incubator and continuously incubating for 96 hours […]
(§6) 11) using a microplate reader to read a OD490 value of each well in the cell plate; and […]
(§7) GraphPad Prism 5.0 software is used to process data graphically. […] A calculation formula of the survival rate is as follows, the IC50 may be automatically calculated in GraphPad Prism 5.0. […]

The subject of data set [2] is MV4-11 cells. Description: Cytotoxicity in MV4-11 cells (CellTiter 96 AQueous One Solution), Embodiment 25. The data set is classed as cell-based. The conditions noted are these: MV4-11, 96 hours. Here is the method: as §1
(§8) 2) adjusting the cell density to 1.11×10^5/mL with a growth medium;
(§9) 3) planting 90 μL/well of cell suspension into the 96-well plate, herein the number of cells per well in the plate is 10000;
as §4, §5
6) taking out the cell culture plate, and adding 10 μL/well of 10× concentration drug working solution to the corresponding wells of the cell culture plate, herein three replicate holes are made for each concentration, and the final drug action concentration is shown in Table 124 below;
(§10) 7) placing the cell culture plate in the incubator and continuously incubating for 96 hours; […]
as §6, §7

In the next data set the test system is HCT116 cells. Description: Cytotoxicity in HCT116 cells (CellTiter-Glo), Embodiment 29. The format is cell-based. As for the experimental part:
Cytotoxicity Research of RNAh-Bio-670-Docetaxel Nanoparticles in HCT116 Cells
1) Cell Culturing and Plating
HCT116 cells are cultured at 37 DEG C. and 5% CO2 in the DMEM basal medium in which 10% FBS and 1% PS are respectively added. The cell density used in the experiment is above 80%. The cells are collected, and centrifuged at 1000 rpm for 4 minutes, the medium is resuspended, the cell concentration is adjusted, and it is added to the 96-well plate in a volume of 5000 cells per 90 μL, and each group has 4 replicate wells.
2) Gradient drug concentration preparation and administration
After 24 hours, the compound solution is transferred to each well, 200 nM of each sample per well, and 4 replication wells.
Medium (untreated) control: only cells without compound treatment
Blank control: without cells, used for instrument zero calibration
3) Cell Culture after Administration
4) Cells Treated by Detection Kit
The well plate is brought to a room temperature in advance and stands for 30 minutes. 100 μL of a CellTiter-Glo® reagent is added to each well of the well plate and mixed for 2 minutes on a shaker to promote cell lysis. The Perkin Elmer Envision 2104 Multilabel Reader is used to read values and the values are recorded. […]
The acquired experiment data is analyzed and processed by using excel software, and GraphPad Prism 5 software is used for curve fitting analysis.

The next data set relates to SKOV3 cells. Description: Cytotoxicity in SKOV3 cells (CellTiter 96 AQueous One Solution), Embodiment 30. The data set is classed as cell-based. The conditions noted are these: Homo sapiens, SK-OV-3, SKOV3, 96 hours. As for the experimental part: as §1, §2, §3, §4, §5
(§11) 6) taking out the cell culture plate, and adding 10 μL/well of 10× concentration drug working solution to the corresponding wells of the cell culture plate, herein three replicate holes are made for each concentration, and the final drug action concentration is shown in Table 134 below;
as §10, §6, §7

Data set [3] concerns MCF-7 cells. Description: Cytotoxicity in MCF-7 cells (CellTiter 96 AQueous One Solution), Embodiment 30. The format is cell-based. As to conditions: Homo sapiens, MCF7, MCF-7, 96 hours. Here is the method: as §1, §2, §3, §4, §5, §11, §10, §6, §7
The subject of data set [4] is MCF-7 cells. As to the kind of experiment: Cytotoxicity in MCF-7 cells (CellTiter 96 AQueous One Solution), Embodiment 37. The data set is classed as cell-based, human. Here is the method:
Cytotoxicity of DNAh-Biotin-EGFRapt-Cy5-Idarubicin Nanoparticles in MCF-7 and MV4-11 Cells
as §1, §2, §3, §4, §5
6) taking out the cell culture plate, and adding 10 μL/well of 10× concentration drug working solution to the corresponding wells of the cell culture plate, herein three replicate holes are made for each concentration, and the final drug action concentration is shown in Table 154 below;
as §10, §6, §7

For data set [5], the system named is MV4-11 cells. Description: Cytotoxicity in MV4-11 cells (CellTiter 96 AQueous One Solution), Embodiment 37. The format is cell-based.
Protocol: 9) adding 20 μL/well of the CellTiter 96® AQueous One Solution reagent to the cell culture plate; […]
In a further data set the test system is RPMI 8226 cells. As to the kind of experiment: Cytotoxicity in RPMI 8226 cells (CellTiter 96 AQueous One Solution), Embodiment 21. The conditions noted are these: Homo sapiens, RPMI 8226, 96 hours. The format is cell-based. As for the experimental part:
as §1, §8, §9, §4, §5
7) placing the cell culture plate in the incubator and continuously incubating for 96 hours;
8) placing the CellTiter 96® AQueous One Solution reagent at the room temperature and thawing for 90 minutes or thawing in a water bath at 37 DEG C., and placing at the room temperature and equilibrating for 30 minutes;
9) adding 20 μL/well of the CellTiter 96® AQueous One Solution reagent to the cell culture plate;
10) placing the cell culture plate in the incubator at 37 DEG C. and continuously incubating for 3 hours;
11) using a microplate reader to read a OD490 value of each well in the cell plate; and
12) data processing and analysis.
as §7

Data set [6] can be described thus: TM value detection by solubility curve method (SYBR Green I). The data set is classed as physicochemical. As to conditions: extension fragment deformation+core short-sequence RNA nanoparticles; temperature at ½ RFUmax in 20 to 90 DEG C. taken as Tm. As for the experimental part:
A solubility curve method is used to detect TM values of the 7 groups of the extension fragment deformation+core short-sequence RNA nanoparticles, and the samples are consistent with the potential samples.
(1) After the sample is diluted with ultrapure water, 5 μg of the diluted sample is mixed with 2 μL of SYBR Green I dye (diluted by 1:200), a final volume is 20 μL, and the dilution concentration is as follows:
(2) It is incubated for 30 min in the dark at a room temperature; and
(3) On-machine detection is performed, a program is set to start at 20 DEG C., the temperature rises per second from 0.1 DEG C. to 95 DEG C., and reading is performed every 5 s.
Due to the particularity of the RNA samples, a temperature corresponding to ½ RFUmax in a range of 20 to 90 DEG C. is used as a sample Tm value in this test.
A solubility curve method is used to detect TM values of the 7 groups of the extension fragment deformation+core short-sequence DNA nanoparticles, and the samples are consistent with the potential samples.

The mark [7] stands for this setting: compared with DNAh targeted fluorescent carrier.

In the data set on MCF-7 cells [1], `O=C1c2c(O)ccc(O)c2C(=O)c2c(NCCNCCO)ccc(NCCNCCO)c21` [Mit (mitoxantrone)] gave an IC50 of 538 nM. Regarding `Nc1ccn([C@@H]2O[C@H](CO)[C@@H](O)[C@@H]2O)c(=O)n1` [cytarabine], in the data set on MV4-11 cells [2] (Homo sapiens), 1250 nM corresponded to half-maximal inhibition (IC50). The “toxicity to the MV4-11 cells (in words)” value in the data set on MV4-11 cells [2] (setting [7]) was “toxic”. In the data set with HCT116 cells (HCT116, treatment time 72 h, drug concentration 200 nM), `CC(=O)O[C@@]12CO[C@@H]1C[C@H](O)[C@@]1(C)C(=O)[C@H](O)C3=C(C)[C@@H](OC(=O)[C@H](O)[C@@H](NC(=O)OC(C)(C)C)c4ccccc4)C[C@@](O)([C@@H](OC(=O)c4ccccc4)[C@H]21)C3(C)C` [docetaxel] had a cell survival rate of 10.68%. The inhibition at 0.2 µM with HCT116 cells (Homo sapiens, HCT-116, HCT116, drug concentration 200 nM, 72 hours, read-out: cell inhibition rates) stood at 50.5%. The half-inhibitory concentration (IC50) in the data set with SKOV3 cells (read-out: IC50), with SKOV3 cells (read-out: IC50 acting on the SKOV3 cells), in the data set with MCF-7 cells [3] (read-out: IC50) and in the data set with MCF-7 cells [3] (read-out: IC50 acting on the MCF-7 cells) was under 1 nM each time. Regarding `CC(=O)[C@]1(O)Cc2c(O)c3c(c(O)c2[C@@H](O[C@H]2C[C@H](N)[C@H](O)[C@H](C)O2)C1)C(=O)c1ccccc1C3=O` [idarubicin], the IC50 in the data set on MCF-7 cells [4] (Homo sapiens, MCF7, MCF-7 cell line, 96 hours incubation, CellTiter 96 AQueous One Solution, OD490) is 72.5 nM; in the data set with MV4-11 cells [5] (Homo sapiens, MV4-11 cell line, 96 hours incubation, CellTiter 96 AQueous One Solution, OD490), under 1 nM. The “toxicity to the MCF-7 cells (in words)” value in the data set on MCF-7 cells [4] (MCF-7, 96 hours, compared with DNAh targeted fluorescent carrier) is “toxic”. In addition, the “toxicity to the MV4-11 cells (in words)” value in the data set with MV4-11 cells [5] (MV4-11, 96 hours, compared with DNAh targeted fluorescent carrier) is “toxic”. As to `Nc1cccc2c1CN(C1CCC(=O)NC1=O)C2=O` (stereo not shown) [lenalidomide, 3-(7-amino-3-oxo-1H-isoindol-2-yl) piperidine-2,6-dione], the IC50 with RPMI 8226 cells (read-out: IC50) and with RPMI 8226 cells (read-out: IC50 acting on the RPMI 8226 cells) was 72.3 µM each time. For the molecule `O=C1c2c(O)ccc(O)c2C(=O)c2c(NCCNCCO)ccc(NCCNCCO)c21` [mitoxantrone], the “toxicity to the MCF-7 cells (in words)” value with MCF-7 cells [1] (setting [7]) is recorded as “toxic”.

B1: R-21: extension fragment deformation+core short-sequence RNA nanoparticles, strands SEQ ID NO: 138-140, a-strand 3′-biotin, 2′F (nucleic acid)
chain 1: GCGGCGAGCGGCGACGAGCGUUGCGGCCGGAGGCCGG
chain 2: CCGGCCUCCGGCCGCUUCGGCGCCAGCCGCC
chain 3: GGCGGCAGGCGCCCAUAGCCGUCGCCGCUCGCCGC
modifications: RNA nanoparticle strands, 2'-fluoro modified, a-strand 3'-biotin, positions not given here
In data set [6], B1 displayed a TM value of 65.0 °C.

B2: R-15: extension fragment deformation+core short-sequence RNA nanoparticles, strands SEQ ID NO: 120-122, a-strand 3′-biotin, 2′F (nucleic acid)
chain 1: GCGGCGAGCGGCGAGGAGCGUUGGGGCCGGAGGCCGG
chain 2: CCGGCCUCCGGCCCCUUCGGGGCCAGCCGCC
chain 3: GGCGGCAGGCCCCCAUAGCCCUCGCCGCUCGCCGC
modifications: chain 1: 3' {Biotin}, sugars by position and backbone not given here; chain 2: sugars by position and backbone not given here; chain 3: sugars by position and backbone not given here; RNA nanoparticle, 2'-fluoro modified
For the molecule B2, the TM value in data set [6] was 57.5 °C.

B3: R-18: extension fragment deformation+core short-sequence RNA nanoparticles, strands SEQ ID NO: 129-131, a-strand 3′-biotin, 2′F (nucleic acid)
chain 1: GCGGCGAGCGGCGAGCAGCGUUCGGGCCGGAGGCCGG
chain 2: CCGGCCUCCGGCCCGUUCGGCGCCAGCCGCC
chain 3: GGCGGCAGGCGCCCAUAGCGCUCGCCGCUCGCCGC
modifications: chain 1: 3' {Biotin}, sugars by position and backbone not given here; chain 2: sugars by position and backbone not given here; chain 3: sugars by position and backbone not given here; RNA nanoparticle, 2'-fluoro modified
In data set [6], B3 returned a TM value of 54.5 °C.

B4: R-19: extension fragment deformation+core short-sequence RNA nanoparticles, strands SEQ ID NO: 132-134, a-strand 3′-biotin, 2′F (nucleic acid)
chain 1: GCGGCGAGCGGCGAGCAGCGUUCGGGCCGGAGGCCGG
chain 2: CCGGCCUCCGGCCCGUUCGGCCCCAGCCGCC
chain 3: GGCGGCAGGGGCCCAUAGCGCUCGCCGCUCGCCGC
modifications: RNA nanoparticle strands, 2'-fluoro modified, a-strand 3'-biotin, positions not given here
In turn, B4 had a TM value in data set [6] of 54.0 °C.

B5: R-17: extension fragment deformation+core short-sequence RNA nanoparticles, strands SEQ ID NO: 126-128, a-strand 3′-biotin, 2′F (nucleic acid)
chain 1: GCGGCGAGCGGCGAGGAGCGUUGGGGCCGGAGGCCGG
chain 2: CCGGCCUCCGGCCCCUUCGCCGCCAGCCGCC
chain 3: GGCGGCAGGCGGCCAUAGCCCUCGCCGCUCGCCGC
modifications: chain 1: 3' {Biotin}, sugars by position and backbone not given here; chain 2: sugars by position and backbone not given here; chain 3: sugars by position and backbone not given here; RNA nanoparticle, 2'-fluoro modified
B5: the TM value in data set [6] was 55.2 °C.

B6: R-16: extension fragment deformation+core short-sequence RNA nanoparticles, strands SEQ ID NO: 123-125, a-strand 3′-biotin, 2′F (nucleic acid)
chain 1: GCGGCGAGCGGCGAGCAGCGUUCGGGCCGGAGGCCGG
chain 2: CCGGCCUCCGGCCCGUUCGCCGCCAGCCGCC
chain 3: GGCGGCAGGCGGCCAUAGCGCUCGCCGCUCGCCGC
modifications: chain 1: 3' {Biotin}, sugars by position and backbone not given here; chain 2: sugars by position and backbone not given here; chain 3: sugars by position and backbone not given here; RNA nanoparticle, 2'-fluoro modified
Turning to B6, in data set [6], the TM value came out at 53.8 °C.
